Test results as given in ChEMBL document CHEMBL5465560, “Selectivity Literature for EUbOPEN Chemogenomic Library” (2024).

Legend:
[1] = target: Vascular endothelial growth factor receptor 2 (Homo sapiens, UniProt P35968); assay: Selectivity interaction (Kinase panel (enzymatic assay)) EUB0000595a KDR
[2] = target: Tyrosine-protein kinase CSK (Homo sapiens) (UniProt P41240); assay: Selectivity interaction (KinomeScan (DiscoverX)) EUB0000045b CSK
[3] = target: T1, Mitogen-activated protein kinase kinase kinase kinase 3 (Homo sapiens) (UniProt Q8IVH8); assay: Selectivity interaction (KinomeScan (DiscoverX)) EUB0000695a MAP4K3; conditions: at 100 nM
T1 sequence (whole entry): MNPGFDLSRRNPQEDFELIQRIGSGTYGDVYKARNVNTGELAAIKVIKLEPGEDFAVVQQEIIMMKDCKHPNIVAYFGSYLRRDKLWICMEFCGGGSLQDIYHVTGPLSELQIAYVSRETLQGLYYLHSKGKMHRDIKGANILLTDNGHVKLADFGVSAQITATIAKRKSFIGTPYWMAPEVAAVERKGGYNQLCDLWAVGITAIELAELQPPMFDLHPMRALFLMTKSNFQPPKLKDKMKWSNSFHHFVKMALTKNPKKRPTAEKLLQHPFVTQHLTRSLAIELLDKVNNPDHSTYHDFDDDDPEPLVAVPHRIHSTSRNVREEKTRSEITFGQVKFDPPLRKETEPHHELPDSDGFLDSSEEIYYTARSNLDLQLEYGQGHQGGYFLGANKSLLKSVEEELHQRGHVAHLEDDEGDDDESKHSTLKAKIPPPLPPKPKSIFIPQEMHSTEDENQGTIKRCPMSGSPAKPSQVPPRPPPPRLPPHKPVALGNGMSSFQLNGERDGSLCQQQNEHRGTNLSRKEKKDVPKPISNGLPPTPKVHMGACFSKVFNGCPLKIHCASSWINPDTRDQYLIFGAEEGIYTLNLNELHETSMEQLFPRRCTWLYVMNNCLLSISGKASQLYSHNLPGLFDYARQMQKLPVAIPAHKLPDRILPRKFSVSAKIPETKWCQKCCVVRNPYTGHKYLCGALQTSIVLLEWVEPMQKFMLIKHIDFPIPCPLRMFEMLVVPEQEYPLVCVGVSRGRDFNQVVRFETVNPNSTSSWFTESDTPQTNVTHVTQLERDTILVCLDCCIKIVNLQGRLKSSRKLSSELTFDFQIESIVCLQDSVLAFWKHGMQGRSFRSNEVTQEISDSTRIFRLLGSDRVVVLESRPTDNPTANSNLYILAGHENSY

[4] = test system: Tyrosine-protein kinase receptor UFO (Homo sapiens), P30530 [R499C]; assay: Selectivity interaction (LanthaScreen Eu Kinase Binding Assay) EUB0001632a AXL; conditions: at 10 µM
[5] = target: Cyclin-dependent kinase 16 (Homo sapiens) (UniProt Q00536); assay: Selectivity interaction (KinomeScan (DiscoverX)) EUB0000666a CDK16; conditions: at 10 µM
[6] = target: Tyrosine-protein kinase JAK1 (Homo sapiens, UniProt P23458); assay: Selectivity interaction (KinomeScan (DiscoverX)) EUB0000666a JAK1; conditions: at 10 µM
[7] = target: Vascular endothelial growth factor receptor 3 (Homo sapiens, UniProt P35916); assay: Selectivity interaction (Kinase screening (Nanosyn)) EUB0000604a FLT4
[8] = target: Macrophage-stimulating protein receptor (Homo sapiens, UniProt Q04912); assay: Selectivity interaction (Kinase screening (Nanosyn)) EUB0000604a MST1R
[9] = target: Serine/threonine-protein kinase 33 (Homo sapiens) (UniProt Q9BYT3); assay: Selectivity interaction (Upstate Kinase Profiler service (Millipore)) EUB0000056c STK33; conditions: at 1 µM
[10] = target: Platelet-derived growth factor receptor beta (Homo sapiens, UniProt P09619); assay: Selectivity interaction (Kinase panel (Carna Biosciences)) EUB0001542aTs PDGFRB; conditions: at 1 µM
[11] = target: T2, Prostaglandin G/H synthase 2 (Homo sapiens) (UniProt P35354); assay: Selectivity interaction (Panel of kinases, GPCRs, ion channels and transporters (enzymatic assay)) EUB0000266bCl PTGS2
T2 sequence (whole entry): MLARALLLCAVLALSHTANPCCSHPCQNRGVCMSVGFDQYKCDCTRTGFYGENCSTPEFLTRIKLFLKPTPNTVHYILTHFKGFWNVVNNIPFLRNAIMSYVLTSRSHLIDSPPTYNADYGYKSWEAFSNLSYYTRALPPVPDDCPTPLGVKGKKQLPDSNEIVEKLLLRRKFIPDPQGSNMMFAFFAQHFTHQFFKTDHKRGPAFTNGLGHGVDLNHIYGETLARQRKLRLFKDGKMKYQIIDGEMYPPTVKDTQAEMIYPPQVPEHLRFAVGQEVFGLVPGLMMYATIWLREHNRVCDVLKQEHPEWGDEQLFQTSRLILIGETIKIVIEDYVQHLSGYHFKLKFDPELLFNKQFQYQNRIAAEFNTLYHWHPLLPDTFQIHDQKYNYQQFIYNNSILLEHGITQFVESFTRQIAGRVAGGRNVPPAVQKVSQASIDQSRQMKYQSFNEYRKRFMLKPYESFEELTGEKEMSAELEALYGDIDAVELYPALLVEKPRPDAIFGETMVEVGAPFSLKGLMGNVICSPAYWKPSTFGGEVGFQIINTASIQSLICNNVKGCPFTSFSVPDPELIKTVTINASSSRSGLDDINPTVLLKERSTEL

[12] = target: T3, Inhibitor of nuclear factor kappa-B kinase subunit epsilon (Homo sapiens) (UniProt Q14164); assay: Selectivity interaction (KinomeScan (DiscoverX)) EUB0000092b IKBKE; conditions: at 10 µM
T3 sequence (whole entry): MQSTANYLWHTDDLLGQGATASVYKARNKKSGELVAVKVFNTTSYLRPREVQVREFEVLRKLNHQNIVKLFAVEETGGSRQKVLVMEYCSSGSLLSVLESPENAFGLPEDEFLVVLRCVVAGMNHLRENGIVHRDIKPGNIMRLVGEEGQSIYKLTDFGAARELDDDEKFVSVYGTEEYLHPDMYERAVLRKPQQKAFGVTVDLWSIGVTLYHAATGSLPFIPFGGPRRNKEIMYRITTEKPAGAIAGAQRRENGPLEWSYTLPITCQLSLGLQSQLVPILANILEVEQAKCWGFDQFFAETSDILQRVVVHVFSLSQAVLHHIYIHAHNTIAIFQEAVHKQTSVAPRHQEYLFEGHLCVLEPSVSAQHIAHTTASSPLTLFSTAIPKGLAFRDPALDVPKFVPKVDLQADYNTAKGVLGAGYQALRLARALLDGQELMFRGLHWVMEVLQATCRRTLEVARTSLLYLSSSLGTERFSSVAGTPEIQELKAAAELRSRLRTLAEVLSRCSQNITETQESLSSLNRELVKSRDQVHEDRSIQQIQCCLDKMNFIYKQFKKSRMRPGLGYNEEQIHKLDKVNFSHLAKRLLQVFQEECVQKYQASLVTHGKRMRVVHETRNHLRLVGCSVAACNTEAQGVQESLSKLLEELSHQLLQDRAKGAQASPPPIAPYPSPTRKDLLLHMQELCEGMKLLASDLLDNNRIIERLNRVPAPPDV

Tyrosine-protein kinase CSK (Homo sapiens), sequence (P41240 2-450 limits assumed): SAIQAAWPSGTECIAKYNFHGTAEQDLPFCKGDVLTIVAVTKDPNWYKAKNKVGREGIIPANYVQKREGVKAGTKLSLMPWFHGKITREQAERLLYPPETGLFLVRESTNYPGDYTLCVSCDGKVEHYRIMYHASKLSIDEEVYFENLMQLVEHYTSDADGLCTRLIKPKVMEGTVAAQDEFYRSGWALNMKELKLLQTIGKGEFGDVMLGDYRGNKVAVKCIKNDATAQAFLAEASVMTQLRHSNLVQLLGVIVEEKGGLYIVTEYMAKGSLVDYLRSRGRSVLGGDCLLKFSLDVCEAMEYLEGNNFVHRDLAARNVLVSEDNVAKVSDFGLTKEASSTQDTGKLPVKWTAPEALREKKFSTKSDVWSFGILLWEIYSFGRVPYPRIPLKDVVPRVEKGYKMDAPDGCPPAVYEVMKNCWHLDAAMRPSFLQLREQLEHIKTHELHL
Serine/threonine-protein kinase 33 (Homo sapiens), sequence (Q9BYT3 whole entry, looked up): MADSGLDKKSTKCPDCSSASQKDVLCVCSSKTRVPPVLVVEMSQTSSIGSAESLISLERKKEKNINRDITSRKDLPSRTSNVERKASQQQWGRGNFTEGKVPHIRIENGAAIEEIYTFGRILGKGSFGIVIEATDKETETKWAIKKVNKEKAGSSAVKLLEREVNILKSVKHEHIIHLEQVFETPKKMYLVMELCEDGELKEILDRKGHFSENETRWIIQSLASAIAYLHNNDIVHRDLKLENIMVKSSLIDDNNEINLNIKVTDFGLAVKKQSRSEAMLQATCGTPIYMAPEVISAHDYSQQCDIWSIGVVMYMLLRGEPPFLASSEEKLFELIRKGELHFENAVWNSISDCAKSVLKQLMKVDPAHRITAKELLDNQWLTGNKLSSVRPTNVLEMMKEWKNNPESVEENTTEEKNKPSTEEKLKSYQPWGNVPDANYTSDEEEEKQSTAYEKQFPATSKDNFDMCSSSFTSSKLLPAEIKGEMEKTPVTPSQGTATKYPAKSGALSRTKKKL
Platelet-derived growth factor receptor beta, sequence (P09619 whole entry): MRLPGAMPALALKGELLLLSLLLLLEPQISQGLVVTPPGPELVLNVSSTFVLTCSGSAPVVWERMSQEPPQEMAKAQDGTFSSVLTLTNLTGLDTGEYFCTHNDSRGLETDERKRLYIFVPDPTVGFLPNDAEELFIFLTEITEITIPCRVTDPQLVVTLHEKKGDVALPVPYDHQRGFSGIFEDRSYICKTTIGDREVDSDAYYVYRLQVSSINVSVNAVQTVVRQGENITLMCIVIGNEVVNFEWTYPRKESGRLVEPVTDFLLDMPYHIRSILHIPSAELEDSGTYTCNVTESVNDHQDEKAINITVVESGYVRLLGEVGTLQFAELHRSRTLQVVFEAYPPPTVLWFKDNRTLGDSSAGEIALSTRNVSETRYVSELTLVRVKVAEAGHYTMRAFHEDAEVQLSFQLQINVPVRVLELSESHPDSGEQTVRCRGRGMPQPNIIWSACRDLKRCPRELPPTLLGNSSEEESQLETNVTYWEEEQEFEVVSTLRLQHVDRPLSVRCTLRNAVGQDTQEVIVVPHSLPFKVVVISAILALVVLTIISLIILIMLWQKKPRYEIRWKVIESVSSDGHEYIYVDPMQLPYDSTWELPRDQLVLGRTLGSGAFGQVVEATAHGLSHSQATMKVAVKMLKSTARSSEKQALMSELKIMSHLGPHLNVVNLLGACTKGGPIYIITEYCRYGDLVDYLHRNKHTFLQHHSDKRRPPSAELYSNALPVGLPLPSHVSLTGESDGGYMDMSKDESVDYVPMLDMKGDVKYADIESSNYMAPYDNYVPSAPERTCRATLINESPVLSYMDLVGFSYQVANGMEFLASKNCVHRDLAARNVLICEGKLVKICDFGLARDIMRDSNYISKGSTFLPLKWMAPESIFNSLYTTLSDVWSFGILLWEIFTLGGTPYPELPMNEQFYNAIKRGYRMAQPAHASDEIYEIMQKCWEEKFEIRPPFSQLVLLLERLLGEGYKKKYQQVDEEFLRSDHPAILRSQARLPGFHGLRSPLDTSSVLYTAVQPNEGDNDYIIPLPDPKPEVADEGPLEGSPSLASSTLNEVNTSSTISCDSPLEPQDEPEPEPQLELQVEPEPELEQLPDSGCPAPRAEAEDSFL
Tyrosine-protein kinase receptor UFO (Homo sapiens), P30530 [R499C], sequence (P30530 whole entry R499C): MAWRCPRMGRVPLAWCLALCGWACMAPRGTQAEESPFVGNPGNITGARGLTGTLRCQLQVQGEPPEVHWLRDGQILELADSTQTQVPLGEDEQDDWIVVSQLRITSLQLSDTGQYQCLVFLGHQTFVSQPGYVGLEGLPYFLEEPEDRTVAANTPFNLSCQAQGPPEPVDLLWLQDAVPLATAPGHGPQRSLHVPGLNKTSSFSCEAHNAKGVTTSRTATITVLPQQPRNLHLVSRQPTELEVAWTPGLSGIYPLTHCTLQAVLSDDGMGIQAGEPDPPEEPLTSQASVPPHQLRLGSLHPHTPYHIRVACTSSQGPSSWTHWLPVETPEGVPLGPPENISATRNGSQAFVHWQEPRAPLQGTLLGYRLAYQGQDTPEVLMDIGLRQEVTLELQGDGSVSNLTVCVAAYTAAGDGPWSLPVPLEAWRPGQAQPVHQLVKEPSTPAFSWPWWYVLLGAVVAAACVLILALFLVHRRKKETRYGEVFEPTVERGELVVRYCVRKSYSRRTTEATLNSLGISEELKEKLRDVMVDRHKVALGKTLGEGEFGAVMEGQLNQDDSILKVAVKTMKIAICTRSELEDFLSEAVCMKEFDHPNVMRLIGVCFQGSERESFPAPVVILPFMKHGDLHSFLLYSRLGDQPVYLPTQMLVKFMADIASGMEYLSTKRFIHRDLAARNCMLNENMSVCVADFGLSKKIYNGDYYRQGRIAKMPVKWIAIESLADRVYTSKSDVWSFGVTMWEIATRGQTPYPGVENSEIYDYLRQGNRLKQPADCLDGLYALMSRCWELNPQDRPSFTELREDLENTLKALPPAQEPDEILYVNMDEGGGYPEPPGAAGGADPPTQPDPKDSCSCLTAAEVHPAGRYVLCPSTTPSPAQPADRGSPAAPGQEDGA
Tyrosine-protein kinase JAK1, sequence (P23458 whole entry): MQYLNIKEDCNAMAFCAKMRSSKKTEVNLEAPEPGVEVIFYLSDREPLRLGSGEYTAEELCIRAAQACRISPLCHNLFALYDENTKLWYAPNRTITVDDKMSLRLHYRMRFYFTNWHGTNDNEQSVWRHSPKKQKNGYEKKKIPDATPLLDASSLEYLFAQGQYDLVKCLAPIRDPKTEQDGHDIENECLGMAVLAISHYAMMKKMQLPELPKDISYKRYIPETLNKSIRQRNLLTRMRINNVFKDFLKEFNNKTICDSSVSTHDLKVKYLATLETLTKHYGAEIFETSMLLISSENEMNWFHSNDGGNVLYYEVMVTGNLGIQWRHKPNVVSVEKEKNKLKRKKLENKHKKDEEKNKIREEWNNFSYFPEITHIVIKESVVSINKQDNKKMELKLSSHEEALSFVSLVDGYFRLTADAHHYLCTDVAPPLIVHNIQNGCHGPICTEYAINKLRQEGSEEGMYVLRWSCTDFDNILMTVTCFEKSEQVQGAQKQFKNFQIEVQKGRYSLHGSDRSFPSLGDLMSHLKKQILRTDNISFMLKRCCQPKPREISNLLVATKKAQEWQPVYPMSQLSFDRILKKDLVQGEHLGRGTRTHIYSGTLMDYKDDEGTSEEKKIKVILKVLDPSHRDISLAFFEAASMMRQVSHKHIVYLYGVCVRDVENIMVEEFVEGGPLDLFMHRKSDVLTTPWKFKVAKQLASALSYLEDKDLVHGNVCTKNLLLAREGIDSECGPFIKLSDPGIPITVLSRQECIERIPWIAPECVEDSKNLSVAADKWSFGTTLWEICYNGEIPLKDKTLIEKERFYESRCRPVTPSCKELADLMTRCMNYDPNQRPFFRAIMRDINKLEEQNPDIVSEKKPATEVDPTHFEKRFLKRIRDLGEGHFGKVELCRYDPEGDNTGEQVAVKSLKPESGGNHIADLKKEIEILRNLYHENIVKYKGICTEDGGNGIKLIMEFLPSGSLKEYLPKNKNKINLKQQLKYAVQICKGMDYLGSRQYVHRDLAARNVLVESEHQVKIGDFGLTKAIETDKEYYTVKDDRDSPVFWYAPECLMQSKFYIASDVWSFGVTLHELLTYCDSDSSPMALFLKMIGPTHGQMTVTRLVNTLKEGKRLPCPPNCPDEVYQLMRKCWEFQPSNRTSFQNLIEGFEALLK
Cyclin-dependent kinase 16 (Homo sapiens), sequence (Q00536 whole entry): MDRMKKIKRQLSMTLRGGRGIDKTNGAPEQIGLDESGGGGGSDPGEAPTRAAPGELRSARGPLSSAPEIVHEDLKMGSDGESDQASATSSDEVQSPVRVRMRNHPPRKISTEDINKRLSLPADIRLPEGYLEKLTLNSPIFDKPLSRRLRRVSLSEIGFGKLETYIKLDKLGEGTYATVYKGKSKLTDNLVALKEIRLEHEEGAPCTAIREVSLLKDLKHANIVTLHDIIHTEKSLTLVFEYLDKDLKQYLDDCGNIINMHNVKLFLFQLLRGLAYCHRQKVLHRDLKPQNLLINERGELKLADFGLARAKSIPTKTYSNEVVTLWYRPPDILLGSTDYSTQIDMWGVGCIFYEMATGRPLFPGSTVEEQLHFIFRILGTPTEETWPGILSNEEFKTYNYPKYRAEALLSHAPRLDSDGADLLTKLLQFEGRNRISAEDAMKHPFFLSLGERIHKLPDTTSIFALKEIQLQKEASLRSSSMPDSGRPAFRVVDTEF

`COCC(=O)NC/C=C/c1ccc2ncnc(Nc3ccc(Oc4ccc(C)nc4)c(C)c3)c2c1` [CP-724714] gave an IC50 [1] of over 10 µM.

`C=CC(=O)Nc1cc(-n2c(=O)ccc3cnc4ccc(-c5ccc(NS(C)(=O)=O)cc5)cc4c32)ccc1C` showed a % of control ([2]; at 1 µM) of 99% and a % of control ([2]; at 10 µM) of 75%.

`Cc1cc(F)c(C(=O)Nc2cccc(-c3nncn3C(C)C)n2)cc1-n1cnc(C2CC2)c1` showed a % of control [3] of 70%.

With `Cn1cc(-n2cnc3c(NCc4nc5cc(Cl)c(Cl)cc5[nH]4)nc(N4CCOCC4)nc32)cn1` the % of inhibition [4] was -15.8%.

`O=C(NOC[C@H](O)CO)c1ccc(F)c(F)c1Nc1ccc(I)cc1F` was tested, and the % of control [5] was 100% and the % of control [6] was 78%.

`Cc1cnc(Nc2ccc(F)cc2Cl)nc1-c1c[nH]c(C(=O)N[C@H](CO)c2cccc(Cl)c2)c1` showed a % of inhibition [7] of 8% and a % of inhibition [8] of 1%.

`Cc1ccc(-c2ccc3c(ccc4sc5c(c43)NC[C@@H](C)NC5=O)n2)cn1` was tested, and the % of inhibition [9] was 39%.

With `Cn1cc(Nc2nccc(N3CC4CCC(C3)N4C(=O)[C@@H]3CC3(F)F)n2)cn1` the % of inhibition [10] was 66%.

`CCn1c(-c2nc3cc(C(=O)N4CCCC(N)C4)ccc3n2C)cc2ccccc21` (stereo not drawn) showed a pXC50 [11] of under 4 M.

For `CCC(=O)N1CCN(c2ccc(-n3c(=O)ccc4cnc5ccc(-c6cnc7ccccc7c6)cc5c43)cc2C(F)(F)F)CC1`, the % of control [12] was 87%.
